Measurements: the NIST ThermoML archive (doi:10.1021/je700404u)
Numbers after ± are expanded uncertainties.

What was measured:
[1] = refractive index (Na D-line) (dimensionless); settings: 293.15 K; 101.33 kPa; Liquid; Standard Abbe refractometry
[2] = 293.15 K; 101.33 kPa; Liquid

| refractive index [1] | mass density [2] [kg/m3] | SMILES |
| --- | --- | --- |
| 1.4065 ± 0.0007 | 929 ± 1 | CCOCCO [2-ethoxyethan-1-ol] |
| 1.3619 ± 0.0007 | 789 ± 1 | CCO [ethanol] |
| 1.3287 ± 0.0007 | 791 ± 1 | CO [methanol] |

| SMILES | refractive index [1] | mass density [2] [kg/m3] |
| --- | --- | --- |
| CC(C)=O [acetone] | 1.359 ± 0.0007 | 790 ± 1 |
